Where two headings read alike, the source gives them in different places.
What was measured:
[1] = test system: portal vein; assay: relaxing activity against contraction by KCl, extracted rabbit blood vessels (portal vein); details: Oryctolagus cuniculus, helical stripe specimens, read-out: ED50 (relaxing activity against KCl contraction)
Description: (§1) (1) Activity on the extracted blood vessels of a rabbit
(§2) A rabbit with a body weight of 2 to 3 kg was bled to death, and the thoracic aorta, mesenteric artery, renal artery, basilar artery and portal vein were extracted. Helical stripe specimens of these blood vessels were prepared. The specimens were suspended in a Magnus vessel, and the relaxing activity of the compound A against contraction of the specimens by KCl was examined. […] It is seen therefore that the compound A differs in activity from nitroglycerin having a strong relaxing activity on the veins, and has a strong relaxing activity on arteries, for example the coronary artery, the renal artery, etc.

[2] = test system: basilar artery; assay: relaxing activity against contraction by KCl, extracted rabbit blood vessels (basilar artery); details: Oryctolagus cuniculus, helical stripe specimens, read-out: ED50 (relaxing activity against KCl contraction)
Description: as §1, §2

[3] = test system: coronary artery; assay: relaxing activity against contraction by KCl, extracted rabbit blood vessels (coronary artery); details: Oryctolagus cuniculus, helical stripe specimens, read-out: ED50 (relaxing activity against KCl contraction)
Description: as §1, §2

[4] = test system: mesenteric artery; assay: relaxing activity against contraction by KCl, extracted rabbit blood vessels (mesenteric artery); details: Oryctolagus cuniculus
Description: as §1, §2
(§3) The inhibiting activity on human platelet aggregation and the relaxing activity on mesenteric artery (the artery being extracted from rabbits) of compounds B to G of the invention were also examined in the same way as in I, (1) and (2). The mesenteric artery relaxing activity was shown in terms of the concentration (μM) of each compound which was required to cause 50% of the maximum relaxation, and the platelet aggregation inhibiting activity, in terms of the concentration (μM) of each compound which was required to inhibit aggregation to an extent of 50%. The platelet aggregation inhibiting activities of these compounds agreed relatively well with their artery relaxing activities

[5] = test system: thoracic aorta; assay: relaxing activity against contraction by KCl, extracted rabbit blood vessels (thoracic aorta); details: Oryctolagus cuniculus, helical stripe specimens, read-out: ED50 (relaxing activity against KCl contraction)
Description: as §1, §2

[6] = test system: renal artery; assay: relaxing activity against contraction by KCl, extracted rabbit blood vessels (renal artery); details: Oryctolagus cuniculus, helical stripe specimens, read-out: ED50 (relaxing activity against KCl contraction)
Description: as §1, §2

[7] = test system: human platelet; assay: inhibition of human platelet aggregation in PRP; assay type: cell-based
Source text: (2) Activity on human platelet
PRP (platelet-rich plasma) was centrifugally separated from human blood to which sodium citrate had been added, and used as a sample. Collagen, adrenaline and adenosine diphosphate were used as substances causing platelet aggregation. The inhibitory effect of the compound A against platelet aggregation included by these substances was examined.
as §3

[8] = activity on the respiration, blood pressure, heart rate and blood flow rate of a dog; assay type: in vivo, dog (male Beagle); details: intravenous, pentobarbital anesthesia
Description: (3) Activity on the respiration, blood pressure, heart rate and blood flow rate of a dog.
The test was carried out under pentobarbital anesthesia using a male Beagle dog having a body weight of about 10 kg. The respiration was measured by means of a pneumotachograph; the blood pressure, by inserting a cannula into the femoral artery; the heart rate, by a cardiotachometer; and the rate of blood flow, by means of an electromagnetic blood flow meter by mounting a measuring probe on the vertebral artery and the femoral artery.
The present compound A was intraveneously administered as a solution in physiological saline.

[9] = acute toxicity test; details: mouse, in vivo
Description: An acute toxicity test was carried out by using male dd-strain mice (body weight 16 to 20 g).

[10] = Table 1, artery extracted from rabbits, same way as in I (1), read-out: Mesenteric artery relaxing activity (concentration required to cause 50% of the maximum relaxation)
[11] = Table 1, human platelets, inducing substance not stated, read-out: Platelet aggregation inhibiting activity (concentration required to inhibit aggregation to an extent of 50%)

N=c1c[n+](N2CCN(CCCCC(=O)c3ccccc3)CC2)[n-]o1 [compound A, 3-[4-(4-Benzoylbutyl)piperazin-1-yl]sydnonimine]
EC50 [1]: 4000 nM | EC50 [2]: 1300 nM | EC50 [3]: 200 nM | EC50 ([4]; mesenteric artery, KCl contraction, helical stripe specimens, read-out: ED50 (relaxing activity against KCl contraction)): 200 nM | EC50 [5]: 200 nM | EC50 [6]: 100 nM | IC50 ([7]; induced by adenosine diphosphate, human PRP, read-out: concentration which achieved a 50% inhibition of the platelet aggregation): 1500 nM | IC50 ([7]; induced by adrenaline, human PRP, read-out: concentration which achieved a 50% inhibition of the platelet aggregation): 800 nM | IC50 ([7]; induced by collagen, human PRP, read-out: concentration which achieved a 50% inhibition of the platelet aggregation): 3400 nM | effect on respiration, blood pressure, heart rate and blood flow ([8]; 10 μg/kg): No appreciable effect was seen | blood pressure ([8]; 100 μg/kg): slight degrees of a fall in blood pressure | force of the pulse ([8]; 100 μg/kg): a decrease in the force of the pulse | blood pressure ([8]; 500 μg/kg): a transient fall in blood pressure and a subsequent lasting fall in blood pressure | rate of blood flow ([8]; vertebral artery and femoral artery): tended to increase at the central part as compared with the peripheral part | LD50 ([9]; sc, subcutaneous administration): 350 mg/kg | LD50 ([9]; intravenous administration): 91 mg/kg | LD50 ([9]; oral administration): 750 mg/kg

CC(C)CC(CCCN1CCN([n+]2cc(=N)o[n-]2)CC1)C(=O)c1ccccc1 (centres unmarked) [compound G, 3-[4-(4-benzoyl-6-methylheptyl)piperazin-1-yl]-sydnonimine]
EC50 [4, 10]: 1300 nM | IC50 [7, 11]: 11000 nM

N=c1c[n+](N2CCN(CCCC(=O)c3ccccc3)CC2)[n-]o1 [compound C, 3-[4-(3-benzoylpropyl)piperazin-1-yl]sydnonimine]
EC50 [4, 10]: 2300 nM | IC50 [7, 11]: 5400 nM

N=c1c[n+](N2CCN(CCCCCCCCC(=O)c3ccccc3)CC2)[n-]o1 [compound F, 3-[4-(8-benzoyloctyl)piperazin-1-yl]sydnonimine]
EC50 [4, 10]: 58 nM | IC50 [7, 11]: 28 nM

N=c1c[n+](N2CCN(CCCCCCC(=O)c3ccccc3)CC2)[n-]o1 [compound E, 3-[4-(6-benzoylhexyl)piperazin-1-yl]sydnonimine]
EC50 [4, 10]: 120 nM | IC50 [7, 11]: 940 nM

N=c1c[n+](N2CCN(CC(=O)c3ccccc3)CC2)[n-]o1 [compound B, 3-[4-(benzoylmethyl)piperazin-1-yl]sydnonimine]
EC50 [4, 10]: 160 nM | IC50 [7, 11]: 140 nM

N=c1c[n+](N2CCN(CCCCCC(=O)c3ccccc3)CC2)[n-]o1 [compound D, 3-[4-(5-benzoylpentyl)piperazin-1-yl]sydnonimine]
EC50 [4, 10]: 3000 nM | IC50 [7, 11]: 6300 nM

From patent US4421754A, “Syndonimine derivatives, process for production thereof, and use thereof” (Hidaka; Hiroyoshi, priority 1981, dated 1983)
